Source: PMC6539479
Entries after “also recorded” stand apart in the source; their conditions may differ. Read-outs that look alike come from different tables or passages of the source.

Assays:
human TASK-3 channels [1] = conditions: cited from earlier work
human TASK-3 channels [2] = assay: IonWorks Quattro electrophysiology assay, HEK293 (Coburn et al.); conditions: TASK-3, from reported IC50
TASK-1 = system: TASK-1; set-up: method as in PMID 30803485; conditions: cited from earlier work
[3] = Table S2, TASK-3, ref 16 (supplement ref 1)
[4] = Table S3 reported activity, TASK-3
[5] = Table 1, Figure 4B and text, TASK-3

CCOC(=O)C1CCN(c2ncnc3c2CN(Cc2ccccc2)CC3)CC1 [Compound 9c]
IC50 (human TASK-3 channels [1]; [3]): 710 ± 80 nM

CS(=O)(=O)C1CCN(c2ncnc3c2CN(C(=O)c2ccc(-c4ccccc4)cc2)CC3)CC1 [Compound 18]
IC50 (human TASK-3 channels [1]; [3]): 82 ± 5 nM
IC50 (human TASK-3 channels [1]; [4]): 82 nM

CCOC(=O)C1CCN(c2ncnc3c2CN(S(=O)(=O)c2ccc(Cl)cc2)CC3)CC1 [Compound 11b]
IC50 (human TASK-3 channels [1]; [3]): 3900 ± 500 nM

O=C(c1ccc(-c2ccccc2)cc1)N1CCc2ncnc(N3CCCCC3)c2C1 [Compound 17c]
IC50 (human TASK-3 channels [1]; [3]): 4000 ± 1100 nM

CCOC(=O)C1CCN(c2ncnc3c2CN(C(=O)c2ccc(C)cc2)CC3)CC1 [Compound 12d]
IC50 (human TASK-3 channels [1]; [3]): 310 ± 80 nM

O=C(c1ccc(-c2ccccc2)cc1)N1CCc2ncnc(N3CC[C@H]4OCCC[C@@H]4C3)c2C1 [Compound 20b]
IC50 (human TASK-3 channels [1]; TASK-3): 70 nM
IC50 (human TASK-3 channels [1]; [5]): 70 nM
IC50 (human TASK-3 channels [1]; [3]): 70 ± 7 nM
IC50 (human TASK-3 channels [1]; [4]): 70 nM

CCc1noc(C2CCN(c3ncnc4c3CN(C(=O)c3ccc(-c5ccccc5)cc3)CC4)CC2)n1 [Compound 22]
IC50 (human TASK-3 channels [1]; TASK-3): 70 nM
IC50 (human TASK-3 channels [1]; [5]): 70 nM
IC50 (human TASK-3 channels [1]; [3]): 70 ± 10 nM
IC50 (human TASK-3 channels [1]; [4]): 70 nM

CCOC(=O)C1CCN(c2ncnc3c2CN(C(=O)Nc2ccc(-c4ccccc4)cc2)CC3)CC1 [Compound 10c]
IC50 (human TASK-3 channels [1]; [3]): 9600 ± 500 nM

CCOC(=O)C1CCN(c2ncnc3c2CN(C(=O)c2ccc(Br)cc2)CC3)CC1 [Compound 12c]
IC50 (human TASK-3 channels [1]; [3]): 430 ± 60 nM

CCOC(=O)C1CCN(c2ncnc3c2CN(C(=O)c2ccc(C4CCCCC4)cc2)CC3)CC1 [Compound 12e]
IC50 (human TASK-3 channels [1]; [3]): 120 ± 10 nM

CCOC(=O)C1CCN(c2ncnc3c2CN(S(=O)(=O)c2ccccc2Cl)CC3)CC1 [Compound 11d]
IC50 (human TASK-3 channels [1]; [3]): 900 ± 100 nM

CCOC(=O)C1CCN(c2ncnc3c2CN(S(=O)(=O)c2cccc(Cl)c2)CC3)CC1 [Compound 11c]
IC50 (human TASK-3 channels [1]; [3]): 700 ± 70 nM

CCOC(=O)C1CCN(c2nc(C)nc3c2CN(C(=O)c2ccc(-c4ccccc4)cc2)CC3)CC1 [Compound 14b]
IC50 (human TASK-3 channels [1]; [3]): 260 ± 50 nM

COC1CCN(c2ncnc3c2CN(C(=O)c2ccc(-c4ccccc4)cc2)CC3)CC1 [Compound 19]
IC50 (human TASK-3 channels [1]; [3]): 135 ± 37 nM
IC50 (human TASK-3 channels [1]; [4]): 135 nM

CCOC(=O)C1CCN(c2ncnc3c2CN(S(=O)(=O)Cc2ccccc2)CC3)CC1 [Compound 11a]
IC50 (human TASK-3 channels [1]; [3]): 3600 ± 400 nM

O=C(c1ccc(-c2ccccc2)cc1)N1CCc2ncnc(N3CCCC3)c2C1 [Compound 17b]
IC50 (human TASK-3 channels [1]; [5]): 27000 nM
inhibiting TASK-3 channels (human TASK-3 channels [1]; potency range in words): micromolar range
fold lower affinity than PK-THPP (human TASK-3 channels [2]): ~1000 fold

O=C(c1ccc(-c2ccccc2)cc1)N1CCc2ncnc(N3CCS(=O)(=O)CC3)c2C1 [Compound 17e]
IC50 (human TASK-3 channels [1]; [3]): 570 ± 60 nM
IC50 (human TASK-3 channels [1]; [4]): 570 nM

CCOC(=O)C1CCN(c2ncnc3c2CN(C(=O)c2ccc(-c4ccccc4)cc2)CC3(C)C)CC1 [Compound 13a]
IC50 (human TASK-3 channels [1]; [3]): 570 ± 30 nM

CC(C)(O)C1CCN(c2ncnc3c2CN(C(=O)c2ccc(-c4ccccc4)cc2)CC3)CC1 [Compound 21]
IC50 (human TASK-3 channels [1]; TASK-3): 50 nM
IC50 (human TASK-3 channels [1]; [5]): 50 nM
IC50 (human TASK-3 channels [1]; [3]): 50 ± 6 nM
IC50 (human TASK-3 channels [1]; [4]): 50 nM

CCOC(=O)C1CCN(c2ncnc3c2CN(C(=O)NCc2ccccc2)CC3)CC1 [Compound 10b]
IC50 (human TASK-3 channels [1]; [3]): 3400 ± 400 nM

CCC(=O)C1CCN(c2ncnc3c2CN(C(=O)c2ccc(-c4ccccc4)cc2)CC3)CC1 [Compound 24]
IC50 (human TASK-3 channels [1]; [3]): 80 ± 9 nM
IC50 (human TASK-3 channels [1]; [4]): 80 nM

CCOC(=O)C1CCN(c2ncnc3c2CN(C(=O)c2ccc(OC)cc2)CC3)CC1 [Compound 12b]
IC50 (human TASK-3 channels [1]; [3]): 1600 ± 180 nM

O=C(c1ccc(-c2ccccc2)cc1)N1CCc2ncnc(N3CCOCC3)c2C1 [Compound 17d]
IC50 (human TASK-3 channels [1]; [3]): 4600 ± 1100 nM

CCCC(=O)C1CCN(c2ncnc3c2CN(C(=O)c2ccc(-c4ccccc4)cc2)CC3)CC1 [PK-THPP]
potency on TASK-1 relative to TASK-3 (TASK-1): almost nine-times less potency; also recorded: almost nine-fold less potency

CCOC(=O)C1CCN(c2ncnc3c2CN(C(=O)c2ccc(-c4ccccc4)cc2)CC3)CC1 [Compound 12f]
IC50 (human TASK-3 channels [1]; [3]): 74 ± 9 nM

CCOC(=O)C1CCN(c2ncnc3c2CN(C(=O)c2ccccc2)CC3)CC1 [Compound 12a]
IC50 (human TASK-3 channels [1]; [3]): 3600 ± 770 nM

CCOC(=O)C1CCN(c2ncnc3c2CN(C(=O)c2ccc(-c4ccccc4)cc2)C(C)(C)C3)CC1 [Compound 13b]
IC50 (human TASK-3 channels [1]; [3]): 650 ± 30 nM
